These results are taken from patent US20230009323A1, “COMPOUNDS AND METHODS FOR THE TREATMENT OF CRYPTOSPORIDIOSIS” (The Broad Institute, Inc., priority 2019, published 2023).

For data set [1], the target named is recombinant C. hominis PheRS (ChPheRS) (Cryptosporidium hominis, UniProt A0A0S4TD72). The data set is described as follows: C. hominis PheRS aminoacylation assay. The data set is classed as biochemical. The note with it: aminoacylation activity. The protocol: The protein sequences of C. hominis PheRS alpha (Chro.30378) and beta subunits (Chro.80385) were retrieved from the Crypto DB (https://cryptodb.org/cryptodb/). Genes were inserted to pETM 11 and pETM 20 vectors and both alpha and beta subunits were co-expressed in E. coli B834 competent cells. Recombinant proteins were expressed by growing cells at 37° C. to OD600 of 0.6-0.8, followed by induction with 0.6 mM isopropyl β-d-1-thiogalactopyranoside (IPTG). The cells were later harvested by centrifugation at 5,000×g and cell pellet suspended in a buffer containing 50 mM Tris-HCl (pH 8.8), 200 mM NaCl, 4 mM [3-mercaptoethanol, 10% (v/v) glycerol, 0.1 mg ml-1 lysozyme and 1 mM phenylmethylsulfonyl fluoride (PMSF)]. The bacterial cells were lysed using sonication and cleared by centrifugation at 20,000×g for 45 mins. […]

A short description of data set [2]: HepG2 cytotoxicity. The data set is classed as cell-based. As to conditions: human, HepG2 cells.
In data set [3] the test system is C. parvum (Iowa) Sterling. The data set can be described thus: C. parvum (Iowa) Sterling growth in HCT-8 cells. The data set is classed as cell-based. As to conditions: Cryptosporidium parvum. The protocol:
Studies using farm C. parvum isolates and the C. hominis TU502 isolate were performed by Calibr at Scripps Research (La Jolla, Calif.) in 1,536-well plates using a slightly modified immunofluorescence assay as described in Love, M. S. et al. PLoS neglected tropical diseases 11, e0005373, doi:10.1371/journal.pntd.0005373 (2017), hereby incorporated by reference in its entirety. HCT-8 cell culture medium was replaced with RPMI 1640 medium supplemented with 2% heat-inactivated horse serum, 100 U·mL^−1 penicillin, and […] 24 h prior to infection with the indicated isolate. The C. parvum Iowa isolate was included as a reference in all experiments. Imaging was performed using a Cellnsight CX5 High Content screening platform (Thermo Scientific) with a 10× objective and acquisition of one microscopic field per well. Images were processed using HCS Studio Scan software, and the selected-object count (HCT-8 cells) and spot count (parasitophorous vacuoles) were analyzed in Genedata Screener (version 13.0; Standard). Dose-response curves and EC50 values were calculated using the Smart Fit function of Genedata Analyzer.

In data set [4] the test system is C. parvum parental WT (Bunchgrass). The data set is described as follows: In vitro drug susceptibility in HCT-8 cells, luminescence, parent strain. The data set is classed as cell-based. The note with it: Cryptosporidium parvum; 48 h, HCT-8, luciferase activity. The protocol: The in vitro drug susceptibility assay using transgenic parasites expressing Nluc was performed as described in Vinyak et al. Briefly, host intestinal epithelial adenocarcinoma (HCT-8) cells grown in 96-well plates were infected with purified transgenic Nluc-expressing oocysts (1,000 oocysts per well) and incubated with different concentrations of Compound 11 for 48 hours. Culture supernatant was discarded from the wells after 48 hours, and 200 μl of NanoGlo lysis buffer containing 1:50 of NanoGlo substrate (Promega) was added to the wells. Lysates were transferred to white 96-well plates and luminescence was measured on a Glomax luminescence reader (Promega). EC50 values were calculated in GraphPad Prism software v7.
Oocysts from the mutant (mut482V) and wild type (wtL482) transgenic lines were purified as well as the parent strain (Bunchgrass) used to generate the transgenics. Sporozoites were excised from these oocysts and used to infect 96 well format HCT-8 cultures to perform in vitro drug susceptibility assays. Cultures were incubated for 48 hours in the presence of varying concentrations of Compound 11 and parasite growth was measured by establishing whole well luciferase activity to calculate EC50 values for each strain.

Data set [5] deals with C. parvum. The data set can be described thus: Host cell invasion assay. The data set is classed as cell-based, Cryptosporidium parvum.

With `COc1ccc(NC(=O)N2CCCCN3[C@H](CN(C)C)[C@H](c4ccc(C#Cc5ccccc5)cc4)[C@@H]3C2)cc1` [Compound 11, (8R,9S,10S)-10-((dimethylamino)methyl)-N-(4-methoxyphenyl)-9-(4-(phenylethynyl)phenyl)-1,6-diazabicyclo[6.2.0]decane-6-carboxamide], the 50% inhibitory concentration (IC50) in data set [1] was 60 nM. In addition, the CC50 in data set [2] came out at 5000 nM. Further, the values for the EC50 in data set [3] and in data set [4] were 8 nM and 29 nM, respectively. In data set [5], the “effect on host cell invasion” value is given as “No effect”.

The term IC50 denotes the concentration needed to halve the response being measured. Usually CC50 stands for the concentration at which the toxic effect on the cells reaches its halfway point. A high value points to lower toxicity to the cells. The EC50 is the concentration that produces a half-maximal response.
